Data set [1] relates to Human immunodeficiency virus 1. Briefly: Inhibition of HIV1 reverse transcriptase at 200 ug/mL.
Data set [2] in a line: Inhibition of HIV1 reverse transcriptase. On the set-up: species or system Human immunodeficiency virus 1.
Data set [3] is described as follows: Cytotoxicity in human C8166 cells. The data set is classed as cell-based.
Data set [4] concerns Human immunodeficiency virus 1. Briefly: Antiviral activity against HIV1 assessed as syncytium reduction. It is filed as functional, organism-based.
Data set [5] can be described thus: Therapeutic index, Ratio of CC50 for human C8166 cells to EC50 for HIV1. The data set is classed as cell-based. Conditions: read-out: TI.
Data set [6] relates to Human immunodeficiency virus 1. Kind of data set: Inhibition of HIV1 reverse transcriptase at 20 ug/mL.

Active and inactive are the calls of the source. No cut-off for these calls is given here. Where only a bound is given, the exact number is not on record here.

As usually defined, the inhibition is the relative decrease from the control value, in per cent. Read a low inhibition as a response near the control. Broadly, the IC50 is the concentration at which inhibition is half-maximal. Lower therefore signals higher potency. As a reminder, the CC50 is the concentration giving 50% cytotoxicity. The EC50 is the concentration needed to bring the measured effect to its halfway point.

Regarding `Cc1ccccc1/C=C/[N+](=O)[O-]`, the inhibition in data set [1] was 99.2%. In data set [2], this molecule displayed an IC50 of 261 µM. In data set [3], this molecule had a CC50 of 7.4 µM.

`CC(=O)N/C=C/c1ccc2ccccc2c1` had an inhibition in data set [1] of 30.1%. The molecule also displayed a CC50 in data set [3] of 154 µM. Moreover, in data set [4], the EC50 was 49.7 µM. The selectivity ratio in data set [5] came out at 3.1.

In turn, `O=[N+]([O-])/C=C/c1cccc(Br)c1` registered an inhibition in data set [1] of 13.4%.

In data set [3], `Cc1cn([C@H]2C[C@H](N=[N+]=[N-])[C@@H](CO)O2)c(=O)[nH]c1=O` [ZIDOVUDINE] registered a half-maximal cytotoxic concentration (CC50) of over 5090 µM. Further, in data set [4], the EC50 stood at 0.0108 µM. The selectivity ratio in data set [5] was over 471000.

For the molecule `O=[N+]([O-])/C=C/c1ccc(Br)cc1`, the inhibition in data set [1] was found to be 20.3%. For the same molecule, the midpoint of cytotoxicity in data set [3], the CC50, lay at 13.6 µM.

On to `CC(=O)N/C=C/c1ccccc1`, for which the inhibition in data set [1] worked out at 22.2%.

Turning to `Cc1ccc(/C=C/[N+](=O)[O-])cc1`, the inhibition in data set [1] is 36.9%. The molecule also registered a half-maximal cytotoxic concentration (CC50) in data set [3] of 15.2 µM.

For `CC(=O)N(C)/C=C/c1ccccc1F`, the inhibition in data set [1] is 61.7%. The molecule further returned a concentration for half-maximal inhibition (IC50) in data set [2] of 477 µM. This molecule gave a 50% cytotoxic concentration (CC50) in data set [3] of 667 µM. Also, the EC50 in data set [4] was found to be 119 µM. Also, in data set [5], the selectivity ratio stood at 5.6.

In the case of `O=[N+]([O-])/C=C/c1ccc(O)cc1`, the inhibition in data set [1] came out at 96.4%. This molecule showed a half-maximal inhibitory concentration (IC50) in data set [2] of 553 µM. In data set [3], this molecule returned a CC50 of 15.8 µM.

Turning to `CC(=O)N/C=C/c1cccc(Br)c1`, the inhibition in data set [1] amounted to 41.5%. Also, in data set [3], it took 134 µM to reach half-maximal cytotoxicity (CC50). Besides, the concentration giving a half-maximal response (EC50) in data set [4] came to 89.3 µM. In addition, in data set [5], the selectivity ratio worked out at 1.5.

In data set [1], `Cc1cc(C)c(/C=C/[N+](=O)[O-])cc1C` displayed an inhibition of 31.5%. For the same molecule, the half-maximal cytotoxic concentration (CC50) in data set [3] is 6.9 µM.

In the case of `O=[N+]([O-])/C=C/c1ccccc1Cl`, the inhibition in data set [1] came to 99.3%. Moreover, in data set [2], the IC50 worked out at 361 µM. The same molecule registered a half-maximal cytotoxic concentration (CC50) in data set [3] of 3 µM.

As for `CC(=O)N/C=C/c1ccco1`, the result in data set [1] was inactive.

On to `COc1ccccc1/C=C/NC(C)=O`, for which, in data set [1], the result was inactive.

For the molecule `O=[N+]([O-])/C=C/c1cccc2ccccc12`, in data set [1], the inhibition was 81.4%. In addition, the IC50 in data set [2] stood at 786 µM. The molecule also yielded a 50% cytotoxic concentration (CC50) in data set [3] of 39.6 µM.

`CC(=O)N/C=C/c1cccc2ccccc12` had an inhibition in data set [1] of 26.5%.

On to `CC(=O)N/C=C/c1ccc(Br)cc1`, for which the result in data set [1] was inactive.

In the case of `CC(=O)N(C)/C=C/c1ccc(Br)cc1`, the outcome in data set [1] was inactive.

As to `O=[N+]([O-])/C=C/c1ccc(Cl)cc1`, in data set [1], the inhibition was found to be 19.8%.

As for `CC(=O)N(C)/C=C/c1cccc(Br)c1`, the inhibition in data set [1] amounted to 45.4%. The same molecule gave an IC50 in data set [2] of 838 µM. For the same molecule, in data set [3], it took 409 µM to reach half-maximal cytotoxicity (CC50). The concentration for a half-maximal effect (EC50) in data set [4] amounted to 128 µM. For the same molecule, the selectivity ratio in data set [5] amounted to 3.2.

Take `O=[N+]([O-])/C=C/c1ccc2ccccc2c1`: the inhibition in data set [1] turned out to be 58.8%. The concentration for half-maximal inhibition (IC50) in data set [2] was 935 µM. This molecule also had a CC50 in data set [3] of 40.6 µM.

For the molecule `O=[N+]([O-])/C=C/c1ccccc1O`, the inhibition in data set [1] was 98.2%. Moreover, in data set [2], the IC50 was 540 µM. Further, the CC50 in data set [3] amounted to 18.8 µM.

As to `O=[N+]([O-])/C=C/c1ccccc1` [(2-NITROVINYL)BENZENE], in data set [1], the inhibition was found to be 99.7%. Also, the IC50 in data set [2] was found to be 87.9 µM. The molecule further had a CC50 in data set [3] of 13.6 µM.

As for `CC(=O)N/C=C/c1ccccc1C`, in data set [1], the inhibition stood at 40.1%. In data set [3], this molecule displayed a cytotoxic concentration (CC50) of 385 µM. Moreover, in data set [4], the EC50 came to 379 µM. Also, the selectivity ratio in data set [5] came out at 1.

In turn, `CC(=O)N/C=C/c1cc(C)c(C)cc1C` had an inhibition in data set [1] of 25.4%.

The molecule `O=[N+]([O-])/C=C/c1ccc(C(F)(F)F)cc1` displayed an inhibition in data set [1] of 29.4%.

`CC(=O)N/C=C/c1ccc(F)cc1`: the outcome in data set [1] was inactive.

`O=[N+]([O-])/C=C/c1ccsc1`: the inhibition in data set [1] stood at 86.2%. Besides, in data set [2], the IC50 turned out to be 709 µM. The molecule further had a half-maximal cytotoxic concentration (CC50) in data set [3] of 25.5 µM.

Take `CC(=O)N/C=C/c1cccc(Cl)c1`: the inhibition in data set [1] is 10.7%.

Consider `COc1ccc(/C=C/[N+](=O)[O-])c(OC)c1`, for which the inhibition in data set [1] came out at 86.3%. The same molecule came in with an IC50 in data set [2] of 553 µM. This molecule yielded a CC50 in data set [3] of 5.4 µM.

Turning to `CC(=O)N/C=C/c1ccc(O)cc1`, in data set [1], the result was inactive.

In turn, `CC(=O)N/C=C\c1ccsc1` showed an inhibition in data set [1] of 12%.

The molecule `CC(=O)N/C=C/c1ccccc1Cl` had an inhibition in data set [1] of 34%. In addition, in data set [3], it took 297 µM to reach half-maximal cytotoxicity (CC50). For the same molecule, the half-maximal effective concentration (EC50) in data set [4] turned out to be 124 µM. Besides, the selectivity ratio in data set [5] was 2.4.

The molecule `O=C(O)P(=O)(O)O` [FOSCARNET] had an IC50 in data set [2] of 1.3 µM. Besides, the inhibition in data set [6] came to 96.5%.

`COc1cc(OC)c(OC)cc1/C=C/[N+](=O)[O-]` yielded an inhibition in data set [1] of 49.1%. Moreover, the IC50 in data set [2] is over 837 µM. For the same molecule, the 50% cytotoxic concentration (CC50) in data set [3] came out at 4.7 µM.

As to `CC(=O)N(C)/C=C/c1ccccc1Br`, the inhibition in data set [1] is 85.3%. The IC50 in data set [2] was 339 µM. The molecule further yielded a CC50 in data set [3] of over 787 µM. For the same molecule, the EC50 in data set [4] came to 59.8 µM. In data set [5], the selectivity ratio was over 13.2.

For `CC(=O)N/C=C/c1ccc(C(F)(F)F)cc1`, the result in data set [1] was inactive.

On to `COc1ccc(/C=C/NC(C)=O)cc1`, for which the outcome in data set [1] was inactive.

Turning to `CC(=O)N/C=C/c1ccc(C)cc1`, the inhibition in data set [1] stood at 16.6%.

In data set [1], `CC(=O)N(C)/C=C/c1ccccc1C` returned an inhibition of 79.8%. Half-maximal inhibition in data set [2] (IC50) required 487 µM. Half-maximal cytotoxicity in data set [3] (CC50) was put at 609 µM. Also, the half-maximal effective concentration (EC50) in data set [4] is 116 µM. For the same molecule, the selectivity ratio in data set [5] was determined as 5.2.

Take `COc1cc(OC)c(OC)cc1/C=C/NC(C)=O`: the result in data set [1] was inactive.

With `O=[N+]([O-])/C=C/c1ccc(F)cc1`, in data set [1], the inhibition turned out to be 22.9%.

In data set [1], `CC(=O)N/C=C/c1ccccc1O` displayed an inhibition of 10.1%.

For the molecule `O=[N+]([O-])/C=C/c1cccc(Cl)c1`, the inhibition in data set [1] came to 49.8%. The IC50 in data set [2] was over 1090 µM. Moreover, the cytotoxic concentration (CC50) in data set [3] was determined as 4.6 µM.

Take `CC(=O)N/C=C/c1ccc(Cl)cc1`: the result in data set [1] was inactive.

Regarding `CC(=O)N/C=C/c1ccsc1`, the outcome in data set [1] was inactive.

Molecule `COc1ccc(/C=C/[N+](=O)[O-])cc1` yielded an inhibition in data set [1] of 93.5%. For the same molecule, in data set [2], the IC50 was determined as 561 µM. Also, in data set [3], the half-maximal cytotoxic concentration (CC50) was determined as 6.3 µM.

`CC(=O)N/C=C/c1ccccc1F` registered an inhibition in data set [1] of 36.2%. The molecule also had a CC50 in data set [3] of 341 µM. For the same molecule, in data set [4], the half-maximal effective concentration (EC50) stood at 383 µM. Besides, the selectivity ratio in data set [5] was under 1.

In the case of `O=[N+]([O-])/C=C/c1ccccc1F`, the inhibition in data set [1] came to 95.4%. For the same molecule, the half-inhibitory concentration (IC50) in data set [2] amounted to 365 µM. Besides, in data set [3], it took 2.8 µM to reach half-maximal cytotoxicity (CC50).

With `COc1ccc(/C=C/NC(C)=O)c(OC)c1`, the outcome in data set [1] was inactive.

For `CC(=O)N(C)/C=C/c1ccccc1Cl`, the inhibition in data set [1] was 75.2%. In data set [2], this molecule showed an IC50 of 434 µM. This molecule also displayed a CC50 in data set [3] of 441 µM. In addition, the concentration giving a half-maximal response (EC50) in data set [4] was found to be 95.9 µM. Further, the selectivity ratio in data set [5] was found to be 4.6.

In data set [1], `O=[N+]([O-])/C=C/c1ccccc1Br` returned an inhibition of 95.7%. The midpoint of inhibition in data set [2], the IC50, lay at 202 µM. In data set [3], this molecule had a CC50 of 0.57 µM.

`CC(=O)N/C=C/c1ccccc1Br` returned an inhibition in data set [1] of 54.4%. In data set [3], this molecule returned a CC50 of 241 µM. For the same molecule, the EC50 in data set [4] stood at 134 µM. The selectivity ratio in data set [5] was 1.8.

Regarding `COc1ccccc1/C=C/[N+](=O)[O-]`, the inhibition in data set [1] was 99.7%. The IC50 in data set [2] stood at 225 µM. The CC50 in data set [3] amounted to 5 µM.

In data set [1], `O=[N+]([O-])/C=C/c1ccco1` gave an inhibition of 91.8%. In addition, the 50% inhibitory concentration (IC50) in data set [2] was 465 µM. Moreover, the CC50 in data set [3] came to 28.9 µM.

Values taken from ChEMBL document CHEMBL1145437, “Synthesis and biological evaluation of N-acetyl-beta-aryl-1,2-didehydroethylamines as new HIV-1 RT inhibitors in vitro” (Bioorg Med Chem Lett, 2007).
